Patent US20220402882A1, “HERBICIDAL COMPOUNDS” (SYNGENTA CROP PROTECTION AG, priority 2019, published 2022)

What was measured:
[1] = tested on: Abutilon theophrasti (ABUTH); test: Pre-emergence glasshouse herbicide test; type: in vivo; conditions: 125 g/h, evaluated after 13 days
Procedure, shortened: (§1)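 Scores are percentage plant damage 13 days after treatment, binned 5=80-100%, 4=60-79%, 3=40-59%, 2=20-39%, 1=0-19%. Compounds were sprayed at 125 g/h unless otherwise indicated, either one day after sowing or on 8-day-old plants, under 24/16 °C, 14 h light and 65% humidity.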

[2] = tested on: Amaranthus retoflexus (AMARE); test: Pre-emergence glasshouse herbicide test; type: in vivo; conditions: 125 g/h, evaluated after 13 days
Procedure, shortened: as §1

[3] = tested on: Echinochloa crus-galli (ECHCG); test: Pre-emergence glasshouse herbicide test; type: in vivo; conditions: 125 g/h, evaluated after 13 days
Procedure, shortened: as §1

[4] = tested on: Ipomoea hederacea (IPOHE); test: Pre-emergence glasshouse herbicide test; type: in vivo; conditions: 125 g/h, evaluated after 13 days
Procedure, shortened: as §1

[5] = tested on: Setaria faberi (SETFA); test: Pre-emergence glasshouse herbicide test; type: in vivo; conditions: 125 g/h, evaluated after 13 days
Procedure, shortened: as §1

[6] = tested on: Abutilon theophrasti (ABUTH); test: Post-emergence glasshouse herbicide test; type: in vivo; conditions: 125 g/h, evaluated after 13 days
Procedure, shortened: as §1

[7] = tested on: Amaranthus retoflexus (AMARE); test: Post-emergence glasshouse herbicide test; type: in vivo; conditions: 125 g/h, evaluated after 13 days
Procedure, shortened: as §1

[8] = tested on: Echinochloa crus-galli (ECHCG); test: Post-emergence glasshouse herbicide test; type: in vivo; conditions: 125 g/h, evaluated after 13 days
Procedure, shortened: as §1

[9] = tested on: Ipomoea hederacea (IPOHE); test: Post-emergence glasshouse herbicide test; type: in vivo; conditions: 125 g/h, evaluated after 13 days
Procedure, shortened: as §1

[10] = tested on: Setaria faberi (SETFA); test: Post-emergence glasshouse herbicide test; type: in vivo; conditions: 125 g/h, evaluated after 13 days
Procedure, shortened: as §1

[11] = tested on: DIGSA; test: Comparative experiment, POST application; type: in vivo
Experimental: (§2) A comparative experiment is conducted to show the advantage provided by the compounds of the present invention. Thus the biological performance of representative compounds […] Compound 4-460 of the type referred to in WO2012/028579. Results are given as (%) phytotoxicity observed.

[12] = tested on: ZEAMX/maize; test: Comparative experiment, POST application; type: in vivo; conditions: crop
Experimental: as §2

[13] = tested on: IPOHE; test: Comparative experiment, POST application; type: in vivo, Ipomoea hederacea
Experimental: as §2

[14] = tested on: ECHCG; test: Comparative experiment, POST application; type: in vivo, Echinochloa crus-galli
Experimental: as §2

[15] = tested on: SETFA; test: Comparative experiment, POST application; type: in vivo, Setaria faberi
Experimental: as §2

[16] = tested on: ABUTH; test: Comparative experiment, POST application; type: in vivo, Abutilon theophrasti
Experimental: as §2

[17] = tested on: AMARE; test: Comparative experiment, POST application; type: in vivo, Amaranthus retoflexus
Experimental: as §2

| Compound | percentage damage caused to the plant, ABUTH [1] | percentage damage caused to the plant, AMARE [2] | percentage damage caused to the plant, ECHCG [3] | percentage damage caused to the plant, IPOHE [4] | percentage damage caused to the plant, SETFA [5] | percentage damage caused to the plant, ABUTH [6] | percentage damage caused to the plant, AMARE [7] | percentage damage caused to the plant, ECHCG [8] | percentage damage caused to the plant, IPOHE [9] | percentage damage caused to the plant, SETFA [10] | also measured |
| --- | --- | --- | --- | --- | --- | --- | --- | --- | --- | --- | --- |
| Cn1nnnc1NC(=O)c1ccc(OC(F)F)c(S(C)(=O)=O)c1Cl [Compound 1.003, 2-chloro-4-(difluoromethoxy)-3-methylsulfonyl-N-(1-methyltetrazol-5-yl)benzamide] | 5 (5=80-100%) | 5 (5=80-100%) | 5 (5=80-100%) | 1 (1=0-19%) | 5 (5=80-100%) | 5 (5=80-100%) | 5 (5=80-100%) | 5 (5=80-100%) | 5 (5=80-100%) | 5 (5=80-100%) | (%) phytotoxicity observed, DIGSA ([11]; rate 15 g/ha): 80%; (%) phytotoxicity observed, DIGSA ([11]; rate 30 g/ha): 80%; (%) phytotoxicity observed, ZEAMX ([12]; rate 15 g/ha): 0%; (%) phytotoxicity observed, ZEAMX ([12]; rate 30 g/ha): 0%; (%) phytotoxicity observed, IPOHE ([13]; rate 15 g/ha): 100%; (%) phytotoxicity observed, IPOHE ([13]; rate 30 g/ha): 100%; (%) phytotoxicity observed, ECHCG ([14]; rate 15 g/ha): 90%; (%) phytotoxicity observed, ECHCG ([14]; rate 30 g/ha): 90%; (%) phytotoxicity observed, SETFA ([15]; rate 15 g/ha): 80%; (%) phytotoxicity observed, SETFA ([15]; rate 30 g/ha): 90%; (%) phytotoxicity observed, ABUTH ([16]; rate 15 g/ha): 90%; (%) phytotoxicity observed, ABUTH ([16]; rate 30 g/ha): 100%; (%) phytotoxicity observed, AMARE ([17]; rate 15 g/ha): 100%; (%) phytotoxicity observed, AMARE ([17]; rate 30 g/ha): 100% |
| CCS(=O)(=O)c1c(OC(F)(F)F)ccc(C(=O)Nc2nnc(C)o2)c1C [Compound 2.011] | 5 (5=80-100%) | 5 (5=80-100%) | 5 (5=80-100%) | 5 (5=80-100%) | 5 (5=80-100%) | 5 (5=80-100%) | 5 (5=80-100%) | 5 (5=80-100%) | 4 (4=60-79%) | 5 (5=80-100%) |  |
| CCSc1c(OC(F)F)ccc(C(=O)Nc2nnc(C)o2)c1Cl [Compound 2.012] | 4 (4=60-79%) | 5 (5=80-100%) | 5 (5=80-100%) | 3 (3=40-59%) | 5 (5=80-100%) | 5 (5=80-100%) | 5 (5=80-100%) | 5 (5=80-100%) | 4 (4=60-79%) | 5 (5=80-100%) |  |
| CCS(=O)(=O)c1c(OC(F)F)ccc(C(=O)Nc2nnc(C)o2)c1Cl [Compound 2.013] | 5 (5=80-100%) | 5 (5=80-100%) | 5 (5=80-100%) | 4 (4=60-79%) | 5 (5=80-100%) | 5 (5=80-100%) | 5 (5=80-100%) | 5 (5=80-100%) | 4 (4=60-79%) | 5 (5=80-100%) |  |
| CCS(=O)(=O)c1c(OC(F)F)ccc(C(=O)Nc2nnc(C)o2)c1C [Compound 2.014] | 5 (5=80-100%) | 5 (5=80-100%) | 5 (5=80-100%) | 5 (5=80-100%) | 5 (5=80-100%) | 5 (5=80-100%) | 5 (5=80-100%) | 5 (5=80-100%) | 4 (4=60-79%) | 5 (5=80-100%) |  |
| CCS(=O)(=O)c1c(OCC(F)(F)F)ccc(C(=O)Nc2nnc(C)o2)c1C [Compound 2.018] | 5 (5=80-100%) | 5 (5=80-100%) | 5 (5=80-100%) | 4 (4=60-79%) | 5 (5=80-100%) | 5 (5=80-100%) | 5 (5=80-100%) | 5 (5=80-100%) | 5 (5=80-100%) | 5 (5=80-100%) |  |
| Cn1nnnc1NC(=O)c1ccc(C(F)(F)F)c(S(C)(=O)=O)c1Cl [Compound 4-640, reference compound] |  |  |  |  |  |  |  |  |  |  | (%) phytotoxicity observed, DIGSA ([11]; rate 15 g/ha): 80%; (%) phytotoxicity observed, DIGSA ([11]; rate 30 g/ha): 80%; (%) phytotoxicity observed, ZEAMX ([12]; rate 15 g/ha): 40%; (%) phytotoxicity observed, ZEAMX ([12]; rate 30 g/ha): 70%; (%) phytotoxicity observed, IPOHE ([13]; rate 15 g/ha): 90%; (%) phytotoxicity observed, IPOHE ([13]; rate 30 g/ha): 90%; (%) phytotoxicity observed, ECHCG ([14]; rate 15 g/ha): 80%; (%) phytotoxicity observed, ECHCG ([14]; rate 30 g/ha): 90%; (%) phytotoxicity observed, SETFA ([15]; rate 15 g/ha): 90%; (%) phytotoxicity observed, SETFA ([15]; rate 30 g/ha): 90%; (%) phytotoxicity observed, ABUTH ([16]; rate 15 g/ha): 90%; (%) phytotoxicity observed, ABUTH ([16]; rate 30 g/ha): 90%; (%) phytotoxicity observed, AMARE ([17]; rate 15 g/ha): 90%; (%) phytotoxicity observed, AMARE ([17]; rate 30 g/ha): 90% |
